Measured values from US20120040951A1, “HETEROARYL COMPOUNDS USEFUL AS RAF KINASE INHIBITORS” (priority 2008, published 2012).

What was measured:
V599E Raf = V599E Raf (Homo sapiens, UniProt P15056, V600E); test: Biochemical FRET assay, mutant Raf (phosphorylation of MEK); conditions: 0.125 nM V599E Raf, 100 nM biotin-MEK, 25 μM ATP, read-out: Raf (mut) inhibition
Experimental: (1) Biochemical FRET Assay […]
Inhibitors were diluted 4-fold in 100% DMSO and added to a final concentration of 10 μM to 40 μM to a solution containing 100 nM biotin-MEK, 0.125 nM V599E Raf in 50 mM HEPES, pH 7.4, 60 mM NaCl, 3 mM MgCl2, 2 mM DTT, 0.25 mM MnCl2, 0.01% BSA, and 0.01% Tween-20 and incubated for 20 minutes at room temperature. The kinase reaction was started by the addition of 25 μM ATP to a final volume of 45 μl and allowed to progress for 60 minutes. The reaction was stopped with 15 mM EDTA and 20 nM Streptavidin-APC, 2.5 nM Polyclonal anti p-MEK1/2 (Ser217/221), 2.5 nM Eu-labeled anti-rabbit IgG were added in Lance detection buffer and 5% Superblock in PBS for a final volume of 100 μl. The detection reaction was incubated for 90 minutes at room temperature and then read on an Analyst plate reader using standard TR-FRET (time resolved fluorescence resonance energy transfer) settings for Eu and APC.
Compounds having an activity designated as “A” provided an IC50≦100 nM; compounds having an activity designated as “B” provided an IC50 of 100-1000 nM; and compounds having an activity designated as “C” provided an IC50 of 1000-10,000 nM.

[1] = tested on: phospho-ERK in melanoma derived WM-266-4 cells; test: Mechanistic cellular assay for Raf kinase activity (phospho-ERK, Bio-Plex); format: cell-based; conditions: Homo sapiens, treated 1-2 hr at 37° C., serum free medium, read-out: pERK EC50
Summary of the method: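 WM-266-4 melanoma cells (wild-type/V600D BRaf) grown overnight in 10% FBS RPMI, then treated 1–2 h at 37 °C in serum-free RPMI with eight 3-fold dilutions of compound (from 5 mM DMSO stock, 1000× dilution). Lysate phospho-ERK1,2 quantified by Bio-Plex bead immunoassay.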

Chain of V599E Raf (P15056 whole entry V600E): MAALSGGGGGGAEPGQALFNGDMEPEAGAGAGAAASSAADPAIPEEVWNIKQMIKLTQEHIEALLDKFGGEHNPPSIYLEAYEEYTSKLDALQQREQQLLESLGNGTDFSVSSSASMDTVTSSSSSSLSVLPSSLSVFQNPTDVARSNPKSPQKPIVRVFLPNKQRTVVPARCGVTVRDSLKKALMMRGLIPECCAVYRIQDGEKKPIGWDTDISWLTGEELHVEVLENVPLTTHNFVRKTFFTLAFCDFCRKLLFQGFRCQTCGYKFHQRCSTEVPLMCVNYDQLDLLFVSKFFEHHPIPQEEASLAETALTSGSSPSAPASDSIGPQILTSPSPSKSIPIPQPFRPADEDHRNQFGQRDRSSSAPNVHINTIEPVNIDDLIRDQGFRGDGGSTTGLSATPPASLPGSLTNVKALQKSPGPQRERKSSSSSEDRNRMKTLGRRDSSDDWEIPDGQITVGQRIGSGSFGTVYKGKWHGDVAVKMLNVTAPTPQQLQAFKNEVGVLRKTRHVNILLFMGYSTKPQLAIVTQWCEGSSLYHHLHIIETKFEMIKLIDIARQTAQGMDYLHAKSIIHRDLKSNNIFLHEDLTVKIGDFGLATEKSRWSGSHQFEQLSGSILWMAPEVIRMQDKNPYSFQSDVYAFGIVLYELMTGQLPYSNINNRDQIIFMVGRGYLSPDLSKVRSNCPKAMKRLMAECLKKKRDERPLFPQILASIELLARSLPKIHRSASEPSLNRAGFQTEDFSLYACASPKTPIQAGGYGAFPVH

Row | SMILES | IC50 (V599E Raf) | EC50 [1]
1 | C[C@@H](NC(=O)c1cnn(C)c1CNCCF)c1ncc(C(=O)Nc2cc(C(F)(F)F)c(Cl)cn2)s1 [Example 131] | 0.1 to 1 µM | 0.1 to 1 µM
2 | Cc1ccc(NC(=O)c2cc([C@@H](C)NC(=O)c3cnn4cc(-c5ccncn5)cnc34)no2)cc1C(F)(F)F [Example 333] | 0.1 to 1 µM | 0.1 to 1 µM
3 | CC(NC(=O)c1cc2c(cn1)ncn2C)c1cnc(Nc2cc(C(C)(C)C)ccc2F)s1 (centres unmarked) [Example 279] | ≤ 0.1 µM | ≤ 0.1 µM
4 | C[C@@H](NC(=O)c1cc2c(cn1)ncn2C)c1cnc(Nc2ccc(C(F)(F)F)nc2)s1 (single isomer, unassigned) [Example 266] | 0.1 to 1 µM | 1 to 10 µM
5 | C[C@@H](NC(=O)c1cnn2cc(-c3cccnc3)ccc12)c1cc(C(=O)Nc2cccc(OC(F)(F)F)c2)on1 [Example 332] | 0.1 to 1 µM | ≤ 0.1 µM
6 | CC(NC(=O)c1cc2c(cn1)ncn2CCN(C)C)c1cnc(Nc2ccc(C(F)(F)F)cc2)s1 (centres unmarked) [Example 7] | ≤ 0.1 µM | ≤ 0.1 µM
7 | CC(NC(=O)c1cc2c(cn1)ncn2C)c1ncc(C(=O)Nc2cc(C(C)(C)C)on2)s1 (centres unmarked) [Example 43] | ≤ 0.1 µM | ≤ 0.1 µM
8 | CC(C)n1cc(C(=O)N[C@H](C)c2ncc(C(=O)Nc3cc(C(F)(F)F)c(Cl)cn3)s2)cn1 [Example 134] | 0.1 to 1 µM | 0.1 to 1 µM
9 | C[C@@H](NC(=O)c1cc2ncn(C)c2cn1)c1ncc(C(=O)Nc2cc(C(F)(F)F)c(Cl)cn2)s1 [Example 41] | ≤ 0.1 µM | 0.1 to 1 µM
10 | C[C@@H](NC(=O)c1cnn(Cc2ccccc2)c1)c1ncc(C(=O)Nc2cc(C(F)(F)F)c(Cl)cn2)s1 [Example 118] | ≤ 0.1 µM | 1 to 10 µM
11 | CC(NC(=O)c1cc2c(cn1)ncn2CC(=O)O)c1cnc(Nc2ccc(C(F)(F)F)cc2)s1 (centres unmarked) [Example 354] | ≤ 0.1 µM | 1 to 10 µM
12 | CC(NC(=O)c1cc2c(cn1)ncn2C)c1cnc(Nc2cc(S(=O)(=O)C(F)(F)F)ccc2Cl)cn1 (centres unmarked) [Example 276] | ≤ 0.1 µM | ≤ 0.1 µM
13 | CC(NC(=O)c1cn2ccnc2cn1)c1cnc(Nc2ccc(C(F)(F)F)cc2)s1 (centres unmarked) [Example 296] | ≤ 0.1 µM | 0.1 to 1 µM
14 | CC(NC(=O)c1cnc2n1CCCN2)c1cnc(Nc2ccc(C(F)(F)F)cc2)s1 (centres unmarked) [Example 177] | ≤ 0.1 µM | 0.1 to 1 µM
15 | Cc1n[nH]c(C)c1C(=O)N[C@H](C)c1ncc(C(=O)Nc2cc(C(F)(F)F)c(Cl)cn2)s1 [Example 111] | ≤ 0.1 µM | 1 to 10 µM
16 | C[C@@H](NC(=O)c1cnn2ccccc12)c1cc(C(=O)Nc2nc3ccc(F)cc3s2)on1 [Example 210] | 0.1 to 1 µM | –
17 | C[C@@H]1[C@]2(C)CC[C@@]1(C)[C@@H](NC(=O)c1cc([C@@H](C)NC(=O)c3cnn4ccccc34)no1)C2 [Example 215] | 1 to 10 µM | –
18 | C[C@@H](NC(=O)c1cnn2ccccc12)c1cc(C(=O)NC2CC(C)(C)NC(C)(C)C2)on1 [Example 216] | 1 to 10 µM | –
19 | C[C@@H](NC(=O)c1cnn2ccccc12)c1cc(C(=O)NC2C[C@@H]3CC[C@H]2C3)on1 (some centres unmarked) [Example 213] | 1 to 10 µM | –
20 | C[C@@H](NC(=O)c1cnn2ccccc12)c1cc(C(=O)Nc2nc(C(C)(C)C)ncc2N)no1 [Example 228] | 0.1 to 1 µM | –
21 | Cc1ccc(NC(=O)c2cc(C(C)(C)NC(=O)c3cnn4ccccc34)on2)cc1C(F)(F)F [Example 230] | 0.1 to 1 µM | –
22 | CC(NC(=O)c1cc2c(cn1)ncn2C)c1cnc(Nc2cccc(C3(C)CC3)c2)s1 (centres unmarked) [Example 271] | – | 0.1 to 1 µM
23 | CC(NC(=O)c1cc2c(cn1)ncn2C)c1cnc(Nc2ccc(C(F)(F)F)cc2N(C)C)s1 (centres unmarked) [Example 275] | – | 0.1 to 1 µM
24 | Cc1[nH]ncc1C(=O)N[C@H](C)c1ncc(C(=O)Nc2cc(C(F)(F)F)c(Cl)cn2)s1 [Example 113] | – | 0.1 to 1 µM
25 | C[C@@H](NC(=O)c1cnn2cccnc12)c1ncc(C(=O)Nc2cc(C(F)(F)F)c(Cl)cn2)s1 [Example 226] | – | 0.1 to 1 µM
26 | C[C@H](NC(=O)c1cc2c(cn1)ncn2C)c1cnc(Nc2ccc(Cl)c(C(F)(F)F)c2)cn1 (single isomer, unassigned) [Example 237] | – | 1 to 10 µM
